Laboratory results as given in ChEMBL document CHEMBL4184108, “Bistachybotrysins A-C, three phenylspirodrimane dimers with cytotoxicity from Stachybotrys chartarum” (Bioorg Med Chem Lett, 2018).

Legend:
Assay type in all cases: functional, cell-based
BGC-823 = assay: Cytotoxicity against human BGC823 cells after 96 hrs by MTT assay; conditions: BGC-823, 96 h
HCT-116 = assay: Cytotoxicity against human HCT116 cells after 96 hrs by MTT assay; conditions: HCT-116, 96 h
NCI-H460 = assay: Cytotoxicity against human NCI-H460 cells after 96 hrs by MTT assay; conditions: NCI-H460, 96 h
HepG2 = assay: Cytotoxicity against human HepG2 cells after 96 hrs by MTT assay; conditions: HepG2, 96 h
Daoy = assay: Cytotoxicity against human DaOY cells after 96 hrs by MTT assay

**Q.** How did the IC50 (BGC-823) turn out when `C[C@@H]1CC[C@H]2C(C)(C)[C@H](O)[C@H](O)C[C@]2(C)[C@@]12Cc1c(O)cc3c(c1O2)C[C@H]1OCc2cc(O)c4c(c2[C@H](O1)[C@H]3O)O[C@]1(C4)[C@H](C)CC[C@H]2C(C)(C)[C@H](O)[C@H](O)C[C@@]21C` was run?
**A.** The IC50 was 19.2 µM.

**Q.** And the IC50 (HCT-116)?
**A.** Its IC50 is 19.1 µM.

**Q.** And the IC50 (NCI-H460)?
**A.** Its IC50 is 12.3 µM.

**Q.** And the IC50 (HepG2)?
**A.** Its IC50 is 19.3 µM.

**Q.** And the IC50 (Daoy)?
**A.** The IC50 was 14.6 µM.

**Q.** Which IC50 (BGC-823) does the source give for `CC(=O)O[C@@H]1[C@H](O)C[C@@]2(C)[C@@H](CC[C@@H](C)[C@]23Cc2c(O)cc4c(c2O3)C[C@H]2OCc3cc(O)c5c(c3[C@H](O2)[C@H]4O)O[C@]2(C5)[C@H](C)CC[C@H]3C(C)(C)[C@H](O)CC[C@@]32C)C1(C)C` here?
**A.** The IC50 was 6.6 µM.

**Q.** What about the IC50 (HCT-116) of the same molecule?
**A.** The IC50 was 18 µM.

**Q.** And the IC50 (NCI-H460)?
**A.** Its IC50 is 5.5 µM.

**Q.** What about the IC50 (HepG2) of the same molecule?
**A.** The IC50 was 19.3 µM.

**Q.** What about the IC50 (Daoy) of the same molecule?
**A.** Its IC50 is 4.2 µM.

**Q.** For `C[C@@H]1CC[C@H]2C(C)(C)[C@H](O)CC[C@]2(C)[C@@]12Cc1c(O)cc3c(c1O2)[C@@H]1O[C@@H](Cc2c(cc(O)c4c2O[C@]2(C4)[C@H](C)CC[C@H]4C(C)(C)[C@H](O)[C@H](O)C[C@@]42C)[C@@H]1O)OC3`, which IC50 (BGC-823) is on record?
**A.** The IC50 was 14.2 µM.

**Q.** What about the IC50 (HCT-116) of the same molecule?
**A.** Its IC50 is 6.7 µM.

**Q.** What about the IC50 (NCI-H460) of the same molecule?
**A.** The IC50 was 7.5 µM.

**Q.** And the IC50 (HepG2)?
**A.** The IC50 was 11.9 µM.

**Q.** What about the IC50 (Daoy) of the same molecule?
**A.** The IC50 was 2.8 µM.

**Q.** How did the IC50 (BGC-823) turn out when `CC(=O)O[C@H]1C(=O)[C@@]2(C)[C@H]([C@H](OC(=O)c3ccccc3)[C@]3(O)C[C@H](OC(=O)[C@H](O)[C@@H](NC(=O)c4ccccc4)c4ccccc4)C(C)=C1C3(C)C)[C@]1(OC(C)=O)CO[C@@H]1C[C@@H]2O` [PACLITAXEL] was run?
**A.** The IC50 was 0.002 µM.

**Q.** And the IC50 (HCT-116)?
**A.** Its IC50 is 0.038 µM.

**Q.** What about the IC50 (NCI-H460) of the same molecule?
**A.** Its IC50 is 0.004 µM.

**Q.** And the IC50 (HepG2)?
**A.** The IC50 was 0.0102 µM.

**Q.** And the IC50 (Daoy)?
**A.** The IC50 was 0.002 µM.
